Assay results reported in US20240336654A1, “ANTIMICROBIAL PEPTIDOMIMETICS” (SPEXIS AG, priority 2021, published 2024).
Where a SMILES comes first, the peptide text is derived from it. Bridges are numbered along the chain shown (N, C = ends). [ ]: non-standard residue; d: D form. The star is where a group is joined. Val(Nα-amidino) = CC(C)[C@H](NC(=N)N)C(=O)*; Dab(iPr) = CC(C)NCC[C@H](N)C(=O)O; Hyp = O=C(O)[C@@H]1C[C@@H](O)CN1; Pen = CC(C)(S)[C@H](N)C(=O)O; ΔPro = O=C(O)[C@@H]1C=CCN1; dDab = NCC[C@@H](N)C(=O)O; Nle = CCCC[C@H](N)C(=O)O; Orn = NCCC[C@H](N)C(=O)O; Dab = NCC[C@H](N)C(=O)O

Key:
Format in all cases: cell-based
[1] = system: Escherichia coli ATCC 25922; conditions: ATCC 25922
Procedure, shortened: (§1)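 CLSI broth microdilution, slightly modified: cation-adjusted Mueller-Hinton II broth with about 5×10^5 CFU/mL from a 0.5 McFarland suspension, and two-fold serial peptide dilutions with Polysorbate 80 at 0.002% final. MIC (μg/mL) was the lowest concentration with no visible growth after 18-20 hours at 35° C.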

[2] = system: Escherichia coli MCR-1 Af 45; conditions: MCR-1 Af 45
Procedure, shortened: as §1

[3] = system: Klebsiella pneumoniae SSI3010; conditions: SSI3010
Procedure, shortened: as §1

[4] = system: human red blood cells (hRBC); conditions: red cells of human, 1 h, 200 μg/mL
Procedure, shortened: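 Percent hemolysis derived from OD540 of supernatants relative to full lysis by 2.5% Triton X-100 (PBS baseline). Washed fresh human erythrocytes (20% v/v) were exposed to 200 μg/mL peptide for 1 h at 37 °C with shaking.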

SMILES	Escherichia coli ATCC 25922 MIC [1]	Escherichia coli MCR-1 Af45 MIC [2]	Klebsiella pneumoniae SSI3010 MIC [3]	Hemolysis at 0.2 g/L [4]
CC[C@H](C)[C@H](NC(=O)[C@@H]1C[C@@H](O)CN1C(=O)[C@@H](N)C(C)C)C(=O)N[C@@H]1C(=O)N[C@@H](Cc2ccc(O)cc2)C(=O)N[C@@H](CCN)C(=O)N[C@@H](CC(N)=O)C(=O)N[C@@H](CCCNC(=N)N)C(=O)N[C@@H](CCN)C(=O)N[C@@H]([C@@H](C)O)C(=O)N[C@H](CCN)C(=O)N[C@@H](CCCCN)C(=O)N[C@@H]([C@@H](C)O)C(=O)N[C@@H](CO)C(=O)N[C@H](C(=O)N[C@@H](Cc2ccc(O)cc2)C(=O)O)CSSC1(C)C [Example 52, Val-Hyp-Ile-Pen-Tyr-Dab-Asn-Arg-Dab-Thr-^DDab-Lys-Thr-Ser-Cys-Tyr] (H-V[Hyp]I[Pen]Y[Dab]NR[Dab]T[dDab]KTSCY-OH; disulfide 4-15)	0.25 µg/mL	0.25 µg/mL	1 µg/mL	<1%
CC[C@H](C)[C@@H]1NC(=O)[C@H]([C@@H](C)O)NC(=O)[C@H](CCCCN)NC(=O)[C@@H](CCN)NC(=O)[C@H]([C@@H](C)O)NC(=O)[C@H](CCN)NC(=O)[C@H](CCCNC(=N)N)NC(=O)[C@H](CC(N)=O)NC(=O)[C@H](CCN)NC(=O)[C@H](Cc2ccc(O)cc2)NC(=O)[C@@H](NC(=O)[C@@H](NC(=O)[C@@H]2C[C@@H](O)CN2C(=O)[C@@H](NC(=N)N)C(C)C)[C@@H](C)CC)C(C)(C)SSC[C@@H](C(=O)N[C@@H](Cc2ccc(O)cc2)C(=O)O)NC1=O [Example 73, Gua-Val-Hyp-Ile-Pen-Tyr-Dab-Asn-Arg-Dab-Thr-^DDab-Lys-Thr-Ile-Cys-Tyr] ({Val(Nα-amidino)}-[Hyp]I[Pen]Y[Dab]NR[Dab]T[dDab]KTICY-OH; disulfide 3-14)	0.5 µg/mL	0.5 µg/mL	0.5 µg/mL	<1%
CC[C@H](C)[C@H](NC(=O)[C@@H]1C[C@@H](O)CN1C(=O)[C@@H](NC(=N)N)C(C)C)C(=O)N[C@@H]1C(=O)N[C@@H](Cc2ccc(O)cc2)C(=O)N[C@@H]([C@@H](C)O)C(=O)N[C@@H](CC(N)=O)C(=O)N[C@@H](CCCNC(=N)N)C(=O)N[C@@H](CCN)C(=O)N[C@@H]([C@@H](C)O)C(=O)N[C@H](CCN)C(=O)N[C@@H](CCN)C(=O)N[C@@H](CCN)C(=O)N[C@@H](CO)C(=O)N[C@H](C(=O)N[C@@H](Cc2ccc(O)cc2)C(=O)O)CSSC1(C)C [Example 127, Gua-Val-Hyp-Ile-Pen-Tyr-Thr-Asn-Arg-Dab-Thr-^DDab-Dab-Dab-Ser-Cys-Tyr] ({Val(Nα-amidino)}-[Hyp]I[Pen]YTNR[Dab]T[dDab][Dab][Dab]SCY-OH; disulfide 3-14)	0.125 µg/mL	0.0625 µg/mL	0.25 µg/mL	<1%
CC[C@H](C)[C@H](NC(=O)[C@@H]1C[C@@H](O)CN1C(=O)[C@@H](NC(=N)N)C(C)C)C(=O)N[C@@H]1C(=O)N[C@@H](Cc2ccc(O)cc2)C(=O)N[C@@H](CO)C(=O)N[C@@H](CC(N)=O)C(=O)N[C@@H](CCCNC(=N)N)C(=O)N[C@@H](CCNC(C)C)C(=O)N[C@@H]([C@@H](C)O)C(=O)N[C@H](CCN)C(=O)N[C@@H](CCCCN)C(=O)N[C@@H](CCNC(C)C)C(=O)N[C@@H](CCN)C(=O)N[C@H](C(=O)N[C@@H](Cc2ccc(O)cc2)C(=O)O)CSSC1(C)C [Example 70, Gua-Val-Hyp-Ile-Pen-Tyr-Ser-Asn-Arg-Da b(iPr)-Thr-^DDab-Lys-Dab(iPr)-Dab-Cys-Tyr] ({Val(Nα-amidino)}-[Hyp]I[Pen]YSNR[Dab(iPr)]T[dDab]K[Dab(iPr)][Dab]CY-OH; disulfide 3-14)	0.125 µg/mL	0.0625 µg/mL	0.25 µg/mL	<1%
CC[C@H](C)[C@H](NC(=O)[C@@H]1C[C@@H](O)CN1C(=O)[C@@H](NC(=N)N)C(C)C)C(=O)N[C@@H]1C(=O)N[C@@H](Cc2ccc(O)cc2)C(=O)N[C@@H]([C@@H](C)O)C(=O)N[C@@H](CC(N)=O)C(=O)N[C@@H](CCCNC(=N)N)C(=O)N[C@@H](CCN)C(=O)N[C@@H]([C@@H](C)O)C(=O)N[C@H](CCN)C(=O)N[C@@H](CCCN)C(=O)N[C@@H](CCN)C(=O)N[C@@H]([C@@H](C)O)C(=O)N[C@H](C(=O)N[C@@H](Cc2ccc(O)cc2)C(=O)O)CSSC1(C)C [Example 133, Gua-Val-Hyp-Ile-Pen-Tyr-Thr-Asn-Arg-Dab-Thr-^DDab-Orn-Dab-Thr-Cys-Tyr] ({Val(Nα-amidino)}-[Hyp]I[Pen]YTNR[Dab]T[dDab][Orn][Dab]TCY-OH; disulfide 3-14)	0.25 µg/mL	0.125 µg/mL	0.25 µg/mL	<1%
CC[C@H](C)[C@H](NC(=O)[C@@H]1C[C@@H](O)CN1C(=O)[C@@H](N)C(C)C)C(=O)N[C@@H]1C(=O)N[C@@H](Cc2ccc(O)cc2)C(=O)N[C@@H](CO)C(=O)N[C@@H](CC(N)=O)C(=O)N[C@@H](CCCNC(=N)N)C(=O)N[C@@H](CCN)C(=O)N[C@@H](CO)C(=O)N[C@H](CCN)C(=O)N[C@@H](CCCCN)C(=O)N[C@@H](CCN)C(=O)N[C@@H](CCN)C(=O)N[C@H](C(=O)N[C@@H](Cc2ccc(O)cc2)C(=O)O)CSSC1(C)C [Example 33, Val-Hyp-Ile-Pen-Tyr-Ser-Asn-Arg-Dab-Ser-^DDab-Lys-Dab-Dab-Cys-Tyr] (H-V[Hyp]I[Pen]YSNR[Dab]S[dDab]K[Dab][Dab]CY-OH; disulfide 4-15)	0.125 µg/mL	0.125 µg/mL	0.125 µg/mL	<1%
CCCC[C@H](NC(=O)[C@@H]1CSSC(C)(C)[C@H](NC(=O)[C@@H](NC(=O)[C@@H]2C[C@@H](O)CN2C(=O)[C@@H](N)C(C)C)[C@@H](C)CC)C(=O)N[C@@H](Cc2ccc(O)cc2)C(=O)N[C@@H](CO)C(=O)N[C@@H](CC(N)=O)C(=O)N[C@@H](CCCNC(=N)N)C(=O)N[C@@H](CCN)C(=O)N[C@@H]([C@@H](C)O)C(=O)N[C@H](CCN)C(=O)N[C@@H](CCCCN)C(=O)N[C@@H](CCN)C(=O)N[C@@H](CCN)C(=O)N1)C(=O)O [Example 67, Val-Hyp-Ile-Pen-Tyr-Ser-Asn-Arg-Dab-Thr-^DDab-Lys-Dab-Dab-Cys-Nle] (H-V[Hyp]I[Pen]YSNR[Dab]T[dDab]K[Dab][Dab]C[Nle]-OH; disulfide 4-15)	0.0625 µg/mL	0.0625 µg/mL	0.125 µg/mL	<1%
CC[C@H](C)[C@H](NC(=O)[C@@H]1C[C@@H](O)CN1C(=O)[C@@H](NC(=N)N)C(C)C)C(=O)N[C@@H]1C(=O)N[C@@H](Cc2ccc(O)cc2)C(=O)N[C@@H]([C@@H](C)O)C(=O)N[C@@H](CC(N)=O)C(=O)N[C@@H](CCCNC(=N)N)C(=O)N[C@@H](CCN)C(=O)N[C@@H]([C@@H](C)O)C(=O)N[C@H](CCN)C(=O)N[C@@H](CCCN)C(=O)N[C@@H](CCN)C(=O)N[C@@H](CO)C(=O)N[C@H](C(=O)N[C@@H](Cc2ccc(O)cc2)C(=O)O)CSSC1(C)C [Example 128, Gua-Val-Hyp-Ile-Pen-Tyr-Thr-Asn-Arg-Dab-Thr-^DDab-Orn-Dab-Ser-Cys-Tyr] ({Val(Nα-amidino)}-[Hyp]I[Pen]YTNR[Dab]T[dDab][Orn][Dab]SCY-OH; disulfide 3-14)	0.125 µg/mL	0.125 µg/mL	0.25 µg/mL	<1%
CC[C@H](C)[C@H](NC(=O)[C@@H]1C[C@@H](O)CN1C(=O)[C@@H](NC(=N)N)C(C)C)C(=O)N[C@H]1CCNC(=O)CC[C@@H](C(=O)N[C@@H](Cc2ccc(O)cc2)C(=O)O)NC(=O)[C@H](CCN)NC(=O)[C@H](CCN)NC(=O)[C@H](C(C)C)NC(=O)[C@@H](CCN)NC(=O)[C@H]([C@@H](C)O)NC(=O)[C@H](CCN)NC(=O)[C@H](CCCNC(=N)N)NC(=O)[C@H](CC(N)=O)NC(=O)[C@H]([C@@H](C)O)NC(=O)[C@H](Cc2ccc(O)cc2)NC1=O [Example 136, Gua-Val-Hyp-Ile-Dab-Tyr-Thr-Asn-Arg-Dab-Thr-^DDab-Val-Dab-Dab-Glu-Tyr] ({Val(Nα-amidino)}-[Hyp]I[Dab]YTNR[Dab]T[dDab]V[Dab][Dab]EY-OH; lactam 3-14)	0.125 µg/mL	0.125 µg/mL	0.5 µg/mL	<1%
CC[C@H](C)[C@H](NC(=O)[C@@H]1C=CCN1C(=O)[C@@H](N)C(C)C)C(=O)N[C@@H]1C(=O)N[C@@H](Cc2ccc(O)cc2)C(=O)N[C@@H]([C@@H](C)O)C(=O)N[C@@H](CC(N)=O)C(=O)N[C@@H](CCCNC(=N)N)C(=O)N[C@@H](CCN)C(=O)N[C@@H]([C@@H](C)O)C(=O)N[C@H](CCN)C(=O)N[C@@H](CCCCN)C(=O)N[C@@H](CCN)C(=O)N[C@@H](CCN)C(=O)N[C@H](C(=O)N[C@@H](Cc2ccc(O)cc2)C(=O)O)CSSC1(C)C [Example 10, Val-Pro(3,4dehydro)-Ile-Pen-Tyr-Thr-Asn-Arg-Dab-Thr-^DDab-Lys-Dab-Dab-Cys-Tyr] (H-V[ΔPro]I[Pen]YTNR[Dab]T[dDab]K[Dab][Dab]CY-OH; disulfide 4-15)	0.0625 µg/mL	0.0625 µg/mL	0.125 µg/mL	<1%
